Measured values: ChEMBL document CHEMBL6109114, “Design, synthesis, and biological evaluation of 4-(2-fluorophenoxy)pyridine derivatives as novel FLT3-ITD inhibitors” (Eur J Med Chem, 2025)

Tests used:
BaF3 [1] = assay: Antiproliferative activity against mouse BaF3 cells harbouring FLT3-ITD assessed as inhibition of cell growth measured after 3 days by celltiter-glo luminescent cell viability assay; assay type: functional, cell-based; details: BaF3, 72 h
BaF3 [2] = assay: Antiproliferative activity against mouse BaF3 cells harbouring VEGFR2 assessed as inhibition of cell growth measured after 3 days by celltiter-glo luminescent cell viability assay; assay type: functional, cell-based; details: BaF3, 72 h
BaF3 [3] = assay: Antiproliferative activity against wild type mouse BaF3 cells assessed as inhibition of cell growth measured after 3 days by celltiter-glo luminescent cell viability assay; assay type: functional, cell-based; details: BaF3, 72 h
MOLM-13 [4] = assay: Induction of apoptosis in human MOLM-13 cells assessed as viable cells at 0.1 uM incubated for 48 hrs by Annexin V-FITC/PI staining based flow cytometry analysis (reference value: 91.9%); assay type: functional; details: read-out: Activity
MOLM-13 [5] = assay: Induction of apoptosis in human MOLM-13 cells assessed as early apoptotic cells at 0.1 uM incubated for 48 hrs by Annexin V-FITC/PI staining based flow cytometry analysis (reference value: 4.93%); assay type: functional
MOLM-13 [6] = assay: Induction of apoptosis in human MOLM-13 cells assessed as late apoptotic cells at 0.1 uM incubated for 48 hrs by Annexin V-FITC/PI staining based flow cytometry analysis (reference value: 3.10%); assay type: functional
MOLM-13 [7] = assay: Induction of apoptosis in human MOLM-13 cells assessed as necrotic cells at 0.1 uM incubated for 48 hrs by Annexin V-FITC/PI staining based flow cytometry analysis (reference value: 0.077%); assay type: functional
MOLM-13 [8] = assay: Induction of cell cycle arrest in human MOLM-13 cells assessed as accumulation of cells at G1 phase at 0.1 uM incubated for 48 hrs (reference value: 40.3%); assay type: functional
MOLM-13 [9] = assay: Induction of cell cycle arrest in human MOLM-13 cells assessed as accumulation of cells at S phase at 0.1 uM incubated for 48 hrs (reference value: 41.6%); assay type: functional
MOLM-13 [10] = assay: Induction of cell cycle arrest in human MOLM-13 cells assessed as accumulation of cells at G2 phase at 0.1 uM incubated for 48 hrs (reference value: […]); assay type: functional
MOLM-13 [11] = assay: Antitumor activity against human MOLM-13 xenografted in male nude mouse assessed as tumor growth inhibition at 20 mg/kg, po administered once daily for 14 days by vernier caliper method relative to control; assay type: functional; details: MOLM-13, 336 h, time 14 day, read-out: TGI

Row | Compound | IC50 (BaF3 [1]) | IC50 (BaF3 [2]) | IC50 (BaF3 [3]) | other results
1 | Cc1cc(=O)n(-c2cc(Cl)ccc2F)nc1C(=O)Nc1ccc(Oc2ccnc(NC(=O)N3CCC(C)(O)C3)c2)c(F)c1 (stereo not given) | 610 nM | 1010 nM | 7.8 µM | 
2 | Cc1cc(=O)n(-c2ccc(I)cc2)nc1C(=O)Nc1ccc(Oc2ccnc(NC(=O)N3CC(O)C3)c2)c(F)c1 | 4300 nM |  | > 10 µM | 
3 | Cc1cc(=O)n(-c2ccc(Br)cc2)nc1C(=O)Nc1ccc(Oc2ccnc(NC(=O)N3CC(O)C3)c2)c(F)c1 | 1380 nM | 3070 nM | > 10 µM | 
4 | Cc1cc(=O)n(-c2ccc(F)c(F)c2)nc1C(=O)Nc1ccc(Oc2ccnc(NC(=O)N3CC(O)C3)c2)c(F)c1 | 470 nM | 580 nM | > 10 µM | 
5 | Cc1cc(=O)n(-c2cccc(Cl)c2)nc1C(=O)Nc1ccc(Oc2ccnc(NC(=O)N3CC(O)C3)c2)c(F)c1 | 350 nM | 440 nM | 9.2 µM | 
6 | Cc1cc(=O)n(-c2ccc(F)cc2)nc1C(=O)Nc1ccc(Oc2ccnc(NC(=O)N3CC(O)C3)c2)c(F)c1 | 490 nM | 770 nM | > 10 µM | 
7 | CCc1nc(C(N)=O)c(Nc2ccc(N3CCC(N4CCN(C)CC4)CC3)c(OC)c2)nc1NC1CCOCC1 [GILTERITINIB] | 130 nM |  |  | 
8 | Cc1cc(=O)n(-c2cc(F)ccc2Cl)nc1C(=O)Nc1ccc(Oc2ccnc(NC(=O)N3CC(O)C3)c2)c(F)c1 | 1880 nM | 5320 nM | > 10 µM | 
9 | COc1ccc(-n2nc(C(=O)Nc3ccc(Oc4ccnc(NC(=O)N5CC(O)C5)c4)c(F)c3)c(C)cc2=O)cc1 | 1130 nM | 4210 nM | > 10 µM | 
10 | CNC(=O)c1cc(Oc2ccc(NC(=O)Nc3ccc(Cl)c(C(F)(F)F)c3)cc2)ccn1 [SORAFENIB] | 100 nM | 18 nM |  | viability at 0.1 µM (MOLM-13 [4]): 25.7%; Activity (MOLM-13 [5]): 26.7%; Activity (MOLM-13 [6]): 47%; Activity (MOLM-13 [7]): 0.66%; Activity (MOLM-13 [8]): 62.9%; Activity (MOLM-13 [9]): 35.4%; Activity (MOLM-13 [10]): 0%
11 | Cc1cc(=O)n(-c2ccc(OC(F)(F)F)cc2)nc1C(=O)Nc1ccc(Oc2ccnc(NC(=O)N3CC(O)C3)c2)c(F)c1 | 3910 nM |  | > 10 µM | 
12 | Cc1cc(=O)n(-c2ccc(S(C)(=O)=O)cc2)nc1C(=O)Nc1ccc(Oc2ccnc(NC(=O)N3CC(O)C3)c2)c(F)c1 | > 10000 nM |  | > 10 µM | 
13 | CCN(CC)CCNC(=O)c1c(C)[nH]c(/C=C2\C(=O)Nc3ccc(F)cc32)c1C [SUNITINIB] |  |  |  | inhibition in vivo at 20 mg/kg (MOLM-13 [11]): 73.2%
14 | Cc1cc(F)ccc1-n1nc(C(=O)Nc2ccc(Oc3ccnc(NC(=O)N4CC(O)C4)c3)c(F)c2)c(C)cc1=O | 770 nM | 1250 nM | > 10 µM | 
15 | Cc1cc(=O)n(-c2ccccc2F)nc1C(=O)Nc1ccc(Oc2ccnc(NC(=O)N3CC(O)C3)c2)c(F)c1 | 670 nM | 850 nM | > 10 µM | 
16 | COC1CCN(C(=O)Nc2cc(Oc3ccc(NC(=O)c4nn(-c5cc(Cl)ccc5F)c(=O)cc4C)cc3F)ccn2)C1 (stereo not given) | 520 nM | 1120 nM | > 10 µM | 
17 | Cc1cc(=O)n(-c2ccc(F)cc2F)nc1C(=O)Nc1ccc(Oc2ccnc(NC(=O)N3CC(O)C3)c2)c(F)c1 | 550 nM | 1410 nM | > 10 µM | 
18 | COc1cc2nccc(Oc3ccc(NC(=O)N/N=C/c4cn(-c5ccccc5OC)nn4)cc3)c2cc1OC | 5820 nM | 8070 nM |  | 

Row | Compound | IC50 (BaF3 [1]) | IC50 (BaF3 [2]) | IC50 (BaF3 [3]) | other results
19 | Cc1cc(=O)n(-c2cc(Cl)ccc2F)nc1C(=O)Nc1ccc(Oc2ccnc(NC(=O)N3CCC(C)CC3)c2)c(F)c1 | 4160 nM | 5510 nM | > 10 µM | 
20 | Cc1cc(-n2nc(C(=O)Nc3ccc(Oc4ccnc(NC(=O)N5CC(O)C5)c4)c(F)c3)c(C)cc2=O)ccc1F | 630 nM | 700 nM | > 10 µM | 
21 | Cc1cc(=O)n(-c2cc(Cl)ccc2F)nc1C(=O)Nc1ccc(Oc2ccnc(NC(=O)N3CCC(O)C3)c2)c(F)c1 (stereo not given) | 600 nM | 1290 nM | > 10 µM | 
22 | Cc1cc(=O)n(-c2cc(Cl)c(F)c(Cl)c2)nc1C(=O)Nc1ccc(Oc2ccnc(NC(=O)N3CC(O)C3)c2)c(F)c1 | 490 nM | 1450 nM | > 10 µM | 
23 | Cc1ccc(-n2nc(C(=O)Nc3ccc(Oc4ccnc(NC(=O)N5CC(O)C5)c4)c(F)c3)c(C)cc2=O)cc1 | 1520 nM | 2010 nM | > 10 µM | 
24 | Cc1cc(=O)n(-c2cc(Cl)ccc2F)nc1C(=O)Nc1ccc(Oc2ccnc(NC(=O)NC3CC3)c2)c(F)c1 | 7810 nM | 5020 nM | > 10 µM | 
25 | Cc1cc(=O)n(-c2ccc(Cl)c(F)c2)nc1C(=O)Nc1ccc(Oc2ccnc(NC(=O)N3CC(O)C3)c2)c(F)c1 | 560 nM | 790 nM | > 10 µM | 
26 | Cc1cc(=O)n(-c2cc(Cl)ccc2F)nc1C(=O)Nc1ccc(Oc2ccnc(NC(=O)N3CCC(N4CCN(C)CC4)CC3)c2)c(F)c1 | 800 nM | 1190 nM | 8.5 µM | 
27 | Cc1cc(=O)n(-c2cc(Cl)ccc2F)nc1C(=O)Nc1ccc(Oc2ccnc(NC(=O)NC3CCOCC3)c2)c(F)c1 | 6300 nM | 2050 nM | > 10 µM | 
28 | COc1cc(F)ccc1-n1nc(C(=O)Nc2ccc(Oc3ccnc(NC(=O)N4CC(O)C4)c3)c(F)c2)c(C)cc1=O | 850 nM | 1480 nM | > 10 µM | 
29 | Cc1cc(=O)n(-c2ccccc2)nc1C(=O)Nc1ccc(Oc2ccnc(NC(=O)N3CC(O)C3)c2)c(F)c1 | 700 nM | 1160 nM | > 10 µM | 
30 | Cc1cc(=O)n(-c2ccc(F)c(Cl)c2)nc1C(=O)Nc1ccc(Oc2ccnc(NC(=O)N3CC(O)C3)c2)c(F)c1 | 400 nM | 540 nM | > 10 µM | 
31 | Cc1cc(=O)n(-c2ccccc2Cl)nc1C(=O)Nc1ccc(Oc2ccnc(NC(=O)N3CC(O)C3)c2)c(F)c1 | 1870 nM | 2960 nM | > 10 µM | 
32 | Cc1cc(=O)n(-c2cc(Cl)ccc2F)nc1C(=O)Nc1ccc(Oc2ccnc(NC(=O)N3CCC(C(C)(C)O)CC3)c2)c(F)c1 | 1670 nM | 2440 nM | > 10 µM | 
33 | Cc1cc(=O)n(-c2ccc(C(F)(F)F)cc2)nc1C(=O)Nc1ccc(Oc2ccnc(NC(=O)N3CC(O)C3)c2)c(F)c1 | 990 nM | 1720 nM | > 10 µM | 
34 | Cc1cc(=O)n(-c2ccc(Cl)cc2)nc1C(=O)Nc1ccc(Oc2ccnc(NC(=O)N3CC(O)C3)c2)c(F)c1 | 610 nM | 720 nM | > 10 µM | 
35 | Cc1cc(=O)n(-c2cc(F)cc(Cl)c2)nc1C(=O)Nc1ccc(Oc2ccnc(NC(=O)N3CC(O)C3)c2)c(F)c1 | 730 nM | 1040 nM | > 10 µM | 
36 | Cc1cc(=O)n(-c2ccc(C#N)cc2)nc1C(=O)Nc1ccc(Oc2ccnc(NC(=O)N3CC(O)C3)c2)c(F)c1 | > 10000 nM |  | > 10 µM | 
